Measured values as given in patent US20240252463A1, “METHODS OF TREATING FIBROTIC PATHOLOGIES” (Mayo Foundation for Medical Education and Research, priority 2018, published 2024).
Like-named read-outs stand apart in the source and are kept apart here.

Key:
Assay type in all cases: cell-based, human
[1] = test system: αSMA; assay: αSMA intensity (fibroblast activation) in IPF patient-derived lung fibroblasts + TGFβ; settings: Homo sapiens, SMA, 1 μM + TGFβ, treated for 72 hours
[2] = test system: YAP/TAZ; assay: YAP/TAZ nuclear localization in IMR-90 and other mesenchymal cells (cardiac, dermal fibroblasts, hepatic stellate cells)
Experimental: FIGS. 2A-2E Dopamine Receptor D1 agonism blocks YAP/TAZ nuclear localization. 2a. Selective agonists of dopamine receptor D1 with varying efficacy inhibit YAP/TAZ nuclear localization; this effect can be overcome by treatment with a DRD1 receptor antagonist (SCH 39166, 3 μM), (Dihydrexidine, 10 μM). IMR-90 cells treated 2 hours prior to fixation. N=4 (****p<0.0001 vs. 0.1% DMSO vehicle control). Scale bar represents 100 μm. 2b. Consistent with DRD1 expression, DHX inhibits YAP/TAZ only in fibroblasts (IPF-FBs) but not in epithelial (NHEpCs) or endothelial (NHMVECs) cells. N=4 (****p<0.0001 vs. 0.1% DMSO vehicle control) 2c. YAP/TAZ localization is induced through multiple ligands which stimulate receptors coupled to Galphαi/q/12, endothelin 1 (ET-1: 100 nM), lysophosphatidic acid (LPA: 10 μM), and serotonin (5-HT: 1 μM). In each case DHX treatment (10 μM) can reverse this effect on YAP/TAZ. IMR-90 cells plated densely onto plastic cell culture plates for 24 hours in media containing 0.1% FBS, treated for 2 hours prior to fixation. N=4 (****p<0.0001 vs. 0.1% DMSO vehicle control), (++++p<0.0001 vs. the respective stimulated agonist ET-1, LPA, or 5-HT). Scale bar represents 100 μm. 2d. cAMP measured in IPF patient-derived fibroblasts treated for 20 minutes with DHX (10 μM)+/−SCH 39166 (3 μM). N=3 (**p<0.01 vs. 0.1% DMSO vehicle control). 2e. Phosphorylation of YAP by Rho-kinase inhibitor Y27632 (20 μM), direct cAMP stimulator Forskolin (10 μM), or DHX (10 μM). IMR-90 cells cultured for 24 hours in media containing 0.1% FBS, treated 2 hours prior to fixation. N=3 (***p<0.001 vs. 0.1% DMSO vehicle control).
FIGS. 6A-6C DHX inhibits YAP/TAZ localization in fibroblasts from multiple tissues. 6a. Mesenchymal cells derived from lung (IMR-90 and IPF-FBs) hepatic stellate cells (HSC), human adult cardiac fibroblasts, (HACF) and human dermal fibroblasts (HDF) were plated densely (Confluent) or sparsely (Control and all remaining conditions) onto plastic cell culture plates for 24 hours in media containing 0.1% FBS, treated for 2 hours with Rho kinase inhibitor Y27632, adenylate cyclase activator forskolin and DHX. N=4, Cells that were positive for nuclear YAP/TAZ were quantified by automated image analysis. 6b. Time course for DHX inhibition of YAP/TAZ nuclear localization. IMR-90 cells, N=3 (***p<0.001 vs. 0.1% DMSO vehicle control). 6c. […] N=3.
ImmunofluorescenceMicroscopy: Cells were plated into 96 well plates (Corning 3603) in their specific growth media and allowed to attach (8 hours). Media was then exchanged for the indicated conditions for each experiment. Cells were fixed in 3.7% formalin (Sigma-Aldrich), permeabilized in 0.25% Triton X-100 (Sigma-Aldrich) and then blocked with 1% BSA for 1 h. Cells or tissue sections were incubated overnight with mouse monoclonal antibody against αSMA (Sigma-Aldrich F3777), and/or a rabbit monoclonal antibody against YAP/TAZ (Cell Signaling D24E4) diluted 1:200 in PBS with 1% BSA. Cells were then washed and exposed to flourescence-conjugated secondary antibodies (Invitrogen) diluted 1:1000 and DAPI (Thermo Fisher Scientific). Images were taken with a Cytation5 (BioTek) microscope. For scoring αSMA positive cells (FIG. 3b), an observer blinded to the treatment conditions counted αSMA-positive cells using a visual threshold for bright fibrous staining; a minimum of 200 cells was counted for each condition. YAP/TAZ localization was quantified (FIG. 2, 6, 8) using Gen5 (Biotek) software. Images were taken at 4× magnification of both DAPI and YAP/TAZ staining. […] Quantification of double positive (YAP/TAZ and αSMA) cells from lung tissue sections (FIG. 4d) was performed similarly; however separate thresholds were established for both YAP/TAZ and αSMA. A minimum of 4000 cells was quantified for each mouse.

[3] = test system: hepatic stellate cells (HSCs); assay: Western blot of αSMA and Fibronectin in TGFβ-stimulated hepatic stellate cells; settings: TGFβ 48 hours +/- DHX 10 μM
Experimental: FIGS. 10A-10D DHX reverses hepatic stellate cell activation and in vivo hepatic fibrosis. 10a. DRD1 is preferentially expressed in cultured human hepatic stellate cells (HSCs): ACTA2, PDGFRA positive, relative to cultured human hepatocytes (Heps): ALB positive. N=1. 10b. DHX inhibits TGFβ-mediated hepatic stellate cell activation in vitro. HSCs were stimulated with TGFβ for 48 hours+/−DHX (10 μM) prior to total protein isolation and western blot analysis of αSMA and Fibronectin. N=3 (***p<0.001, **p<0.01, *p<0.05 vs. Control+TGFβ). 10c. DHX reverses Bile duct ligation (BDL) mediated fibrosis in vivo measured by trichrome staining, and 10d. hydroxyproline. Sham Control N=5, BDL Control N=7, and BDL DHX N=8 (**p<0.01 vs. BDL Control).
Western Blotting: Cells were plated in EMEM containing 10% FBS overnight. Media was exchanged with EMEM containing 0.1% FBS for 24 hours. Prior to protein isolation cells were treated with the indicated concentration of compounds for the indicated time. Total protein was isolated using RIPA buffer (pH 8.0) containing Pierce Phosphatase Inhibitor (Thermo) and Halt Protease Inhibitor Cocktail (Thermo). Lysate total protein concentration was determined using Pierce BCA Protein Assay Kit (Thermo) and samples were run on a 10% polyacrylamide gel. […] Plates were imaged via a Li-Cor OdysseyXL system with quantification performed via densitometry.

Oc1cc2c(cc1O)[C@H]1c3ccccc3CN[C@@H]1CC2 (racemic) [Dihydrexidine, dihydrexidine]
activity at 1 µM ([1]; patient sample IPF-1, read-out: αSMA intensity (% of DMSO control) IPF-1): 4.98% | activity at 1 µM ([1]; patient sample IPF-2, read-out: αSMA intensity (% of DMSO control) IPF-2): 0.0469% | activity at 1 µM ([1]; patient sample IPF-3, read-out: αSMA intensity (% of DMSO control) IPF-3): 0.513% | activity at 1 µM ([1]; patient sample IPF-4, read-out: αSMA intensity (% of DMSO control) IPF-4): 12% | potency of inhibition of YAP/TAZ nuclear localization, normal lung fibroblasts vs IPF-derived ([2]; FIG. 6c): equally potent | YAP/TAZ nuclear localization across a panel of mesenchymal cell types ([2]; cardiac and dermal fibroblasts and hepatic stellate cells (FIG. 6)): effective at inhibiting YAP/TAZ nuclear localization | YAP/TAZ nuclear localization induced by endothelin-1, lysophosphatidic acid and serotonin ([2]; confluent IMR-90, DHX 10 μM, 2 hours (FIG. 2c)): blocked nuclear localization of YAP/TAZ | YAP/TAZ nuclear localization ([2]; fibroblasts on stiff matrix (plastic), IMR-90 cells treated 2 hours (FIG. 2a)): reduced nuclear localization of YAP/TAZ | TGFβ-mediated HSC expression of SMA and FN protein [3]: significant reversal of both
